From US7652155B2, “Diamine derivative, production process therefor and antioxidant” (Nippon Soda Co., Ltd., priority 2003, dated 2010)
Structures can show the parent of a compound that is named as a salt. Where two headings read alike, the source gives them in different places.

Assays:
[1] = Acute oral toxicity in mice; details: mouse, in vivo; male mice, single oral dose, observed for 7 days
Source text: A single dose of the test compounds according to the present invention was orally administered to male mice followed by observing for 7 days to determine the mortality rate. The compound indicated below was used for Control Drug 3.

[2] = system: mice administered ferrous chloride into the spinal subarachnoid cavity; experiment: Antioxidative action in vivo: abnormal behavior and mortality after ferrous chloride into the spinal subarachnoid cavity; design: species or system mouse; details: male Slc:ICR mice, 30 minutes before ferrous chloride, score after 60 minutes
Description: The antioxidative action in vivo of the compounds according to the present invention was evaluated according to the method described in the Journal of Medical Chemistry (J. Med. Chem., 1997, vol. 40, pp. 559 to 573) based on the inhibitory effects on abnormal behavior and mortality rate following administration of ferrous chloride into the spinal subarachnoid cavity of mice. Male Slc:ICR mice (age: 5 weeks) (purchased from Japan SLC) were used in groups of 3 to 7 animals each, and were administered 5 μl of aqueous physiological saline solution containing 50 mM ferrous chloride into the spinal column between the 5th and 6th lumbar vertebra. […] The test compounds were dissolved or suspended in an aqueous physiological saline solution or an aqueous physiological saline solution containing 1% polyethylene hardened castor oil (manufactured by Nikko Chemicals CO., LTD. under the name of NIKKOL HCO-60), and administered intraperitoneally or orally 30 minutes before the administration of ferrous chloride. The 50% inhibitory dose (hereinafter, abbreviated as ID50) of each test compound was determined from the score of a control group (physiological saline treated group) and the score of each test compound treated group.

15-lipoxygenase (15-LO) = molecular target: T1, 15-lipoxygenase (15-LO) (Oryctolagus cuniculus, UniProt P12530); experiment: 15-LO inhibitory activity (15-LO from rabbit reticulocytes, linoleic acid); assay type: biochemical; details: 256 μM linoleic acid, 4° C., read-out: Lipoxygenase inhibitory action 50% inhibitory concentration (IC50), 15-LO
T1 construct: 15-LO obtained from rabbit reticulocytes; from tissue; host or cells: rabbit reticulocytes
T1 sequence (P12530 1-663): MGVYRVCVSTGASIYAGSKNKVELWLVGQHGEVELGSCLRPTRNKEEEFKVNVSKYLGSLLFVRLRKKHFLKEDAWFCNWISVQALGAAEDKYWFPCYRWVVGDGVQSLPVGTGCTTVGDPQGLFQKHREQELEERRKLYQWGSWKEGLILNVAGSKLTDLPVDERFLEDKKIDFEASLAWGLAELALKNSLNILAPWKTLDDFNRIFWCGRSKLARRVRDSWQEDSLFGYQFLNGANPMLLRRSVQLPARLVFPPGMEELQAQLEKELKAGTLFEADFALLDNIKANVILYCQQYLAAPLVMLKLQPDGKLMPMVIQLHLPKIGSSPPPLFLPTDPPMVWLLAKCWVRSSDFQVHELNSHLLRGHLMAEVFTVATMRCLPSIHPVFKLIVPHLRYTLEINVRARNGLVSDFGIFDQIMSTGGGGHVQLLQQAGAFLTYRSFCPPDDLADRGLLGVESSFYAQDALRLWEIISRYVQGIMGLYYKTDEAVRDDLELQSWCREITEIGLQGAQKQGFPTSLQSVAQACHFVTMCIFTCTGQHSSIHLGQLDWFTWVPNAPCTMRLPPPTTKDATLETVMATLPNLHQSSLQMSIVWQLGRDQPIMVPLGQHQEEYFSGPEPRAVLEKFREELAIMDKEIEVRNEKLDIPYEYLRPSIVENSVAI
Description: 15-LO inhibitory activity was measured using a variation of the method of Auerbach et al. (Auerbach B. J. et al., Anal. Biochem., 201, 375 to 380, 1992). Namely, after pre-incubating (4° C., 15 minutes) in phosphate buffer (pH 7.4) 15-LO obtained from rabbit reticulocytes and a test compound dissolved in DMSO (final concentration: 1%), 256 μM linoleic acid was added and the resulting solution was additionally incubated (4° C., 10 minutes). The resulting 15-HETE that formed was quantified by spectrophotometry (OD660 nm), and the 50% formation inhibitory concentration (μM) of the test compound with respect to 15-LO was calculated from that value.

[3] = system: lipid peroxide in homogenates of brain, heart and kidneys; experiment: Tissue migration: antioxidative action on lipids ex vivo after intraperitoneal administration; assay type: in vivo; details: Rattus norvegicus, ip, 0.5 h, male SD rats, 100 mg/kg intraperitoneally, 30 minutes after administration
Description: (§1) The antioxidative action on lipids in vitro of the compounds according to the present invention was evaluated in accordance with the method of Malvy et al. (Malvy C. et al.,) described in Biochemical and Biophysical Research Communications, 1980, vol. 95, pp. 734 to 737,) by measuring the lipid peroxide activity in a rat brain homogenate. Namely, the rat brain was removed followed by the addition of five volumes of an aqueous solution of phosphate buffered saline (pH 7.4) (hereinafter, abbreviated as PBS) to the brain while cooling with water, homogenizing with a Teflon homogenizer, and centrifuging for 20 minutes at 10,000 g to collect the supernatant as a brain homogenate. 500 μM cysteine, 5 μM ferrous sulfate, and 100 mM KCl were added to the resulting brain homogenate followed by incubating for 30 minutes at 37° C. and measuring the malondialdehyde that formed due to decomposition of lipid peroxide using the thiobarbituric acid method. The 50% inhibitory concentrations (hereinafter, abbreviated as IC50) of the compounds according to the present invention were then determined from the measured values.
Tissue migration of the compounds according to the present invention was evaluated by measuring the antioxidative action on lipids ex vivo. A test compound dissolved or suspended in an aqueous physiological saline solution or aqueous physiological saline solution containing 1% polyethylene hardened castor oil (Nikko Chemicals: Nikkol HCO-60) was intraperitoneally administered to male SD rats (age: 6 weeks) (purchased from Japan SLC) in groups of 3 animals each at a dose of 100 mg/kg. The animals were sacrificed by exsanguination by severing the carotid artery 30 minutes after administration followed by removing the brain, heart and kidneys. The lipid peroxide activity of homogenates of each tissue was measured using the method described in Example 4. The inhibition rates of the test compounds in each tissue were determined from the amounts of lipid peroxide formed in a control group (physiological saline dose group) and test compound groups.

[4] = system: 66 kDa protein in rat retina; experiment: Inhibitory action on increases in 66 kDa protein in UV-A irradiated rat retina; assay type: in vivo; details: male Wistar rats, 100 mg/kg p.o. 30 minutes before UV-A (12 mW/cm^2, 30 minutes); retinas 48 hours after irradiation; N = 3
Description: The inhibitory action of the compound according to the present invention on increases in 66 kDa protein in rat retina irradiated with UV light was evaluated. The test compound was dissolved or suspended in 0.1 N aqueous hydrochloric acid solution or 1% polyethylene hardened castor oil (Nikkol HCO-60) and orally administered to male Wistar rats (age: 7-9 weeks) followed 30 minutes later by irradiation of the right eye with UV-A (12 mW/cm^2) for 30 minutes using a UV spot light source. In addition, the left eye was not irradiated and used as a control. The rats were housed in an environment blocked from interior light both during UV-A irradiation and for 2 hours before and after irradiation. The retinas were separated 48 hours after irradiation and 5% homogenates were prepared using the same method as described in Example 4. Changes in retina protein were determined by SDS-polyacrylamide gel electrophoresis in accordance with the method of Lammli (Nature, […], 680 to 685, 1970). […] Subsequently, the gel was decolored with a mixture of ethanol, acetic acid, and water (25:8:65) and the 66 kDa protein following electrophoresis was analyzed by densitrography. The amount of protein in the samples was determined using the Lowry method.

[5] = system: lipid peroxides in retina homogenate; experiment: Retina migration: formation of lipid peroxides in retina ex vivo after oral administration; design: species or system rat; details: male SD rats, retinas removed 30 minutes later, auto-oxidized 1 hour at 37° C.
Description: The retina migration of the compounds according to the present invention was evaluated. The test compounds dissolved or suspended in 0.1 N aqueous hydrochloric acid solution or 1% polyethylene hardened castor oil (Nikkol HCO-60) solution were orally administered to male SD rats (age: 6 weeks) in groups of three animals each followed by removing both eyes 30 minutes later and separating the retinas while cooling with ice. The retinas were homogenized with a Polytron Microhomogenizer (NS-310E: manufactured by Niti-On Medical and Physical Instruments) in 0.1 M Tris-HCl buffer (pH 7.4) while cooling with ice to prepare 5% homogenates. The homogenates were then auto-oxidized for 1 hour at 37° C., and the amounts of lipid peroxide that formed were quantified using the thiobarbituric acid method (Masugi, et al., Vitamin, 51, 21 to 29, 1977).

5-lipoxygenase (5-LO) = molecular target: T2, 5-lipoxygenase (5-LO) (Homo sapiens, UniProt P09917); experiment: 5-LO inhibitory activity (leucotriene B4 formation in human peripheral blood mononuclear cells, A23187); assay type: cell-based; details: 30 μM A23187, leucotriene B4, read-out: Lipoxygenase inhibitory action 50% inhibitory concentration (IC50), 5-LO
T2 construct: human peripheral blood mononuclear cells; endogenous in cells; host or cells: human peripheral blood mononuclear cells
T2 sequence (P09917 1-674): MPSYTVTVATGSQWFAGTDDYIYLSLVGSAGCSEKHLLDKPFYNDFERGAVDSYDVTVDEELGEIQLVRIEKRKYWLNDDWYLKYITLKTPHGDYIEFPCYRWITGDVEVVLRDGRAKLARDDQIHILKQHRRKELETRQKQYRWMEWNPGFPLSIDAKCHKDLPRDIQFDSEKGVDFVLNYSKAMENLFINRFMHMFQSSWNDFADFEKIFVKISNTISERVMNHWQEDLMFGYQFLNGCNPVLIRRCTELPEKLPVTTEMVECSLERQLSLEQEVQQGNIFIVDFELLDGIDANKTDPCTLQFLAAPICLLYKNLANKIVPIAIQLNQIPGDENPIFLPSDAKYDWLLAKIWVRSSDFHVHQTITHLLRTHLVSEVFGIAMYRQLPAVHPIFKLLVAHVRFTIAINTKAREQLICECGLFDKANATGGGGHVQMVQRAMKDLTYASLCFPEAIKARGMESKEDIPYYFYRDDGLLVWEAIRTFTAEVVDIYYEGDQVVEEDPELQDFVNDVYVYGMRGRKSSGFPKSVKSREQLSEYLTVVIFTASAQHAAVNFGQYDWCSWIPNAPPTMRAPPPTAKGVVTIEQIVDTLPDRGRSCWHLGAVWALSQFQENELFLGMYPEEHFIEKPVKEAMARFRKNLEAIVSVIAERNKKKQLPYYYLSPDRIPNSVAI
Description: 5-LO inhibitory activity was measured using a variation of the method of Carter et al. (Carter G. W. et al., J. Pharmacol. Exp. Ther., 256, 929 to 937, 1991). Namely, after pre-incubating (37° C., 15 minutes) in Hank's solution human peripheral blood mononuclear cells and a test compound dissolved in DMSO (final concentration: 1%), 30 μM A23187 was added and the resulting solution was additionally incubated (37° C., 30 minutes). The resulting leucotriene B4 that formed was quantified by enzyme immunoassay, and the 50% formation inhibitory concentration (μM) of the test compound with respect to 5-LO was calculated from that value.

[6] = system: lipid peroxide in rat brain homogenate; experiment: Antioxidative action on lipids in vitro (lipid peroxide activity in rat brain homogenate, thiobarbituric acid method); assay type: biochemical; details: 500 μM cysteine, 5 μM ferrous sulfate, 100 mM KCl, 30 minutes at 37° C., malondialdehyde, read-out: 50% inhibitory concentration of anti-lipid peroxide action in vitro (IC50)
Description: as §1

[7] = brain homogenate, read-out: Inhibition rate of ex vivo anti-lipid peroxide action, Brain
[8] = heart homogenate, read-out: Inhibition rate of ex vivo anti-lipid peroxide action, Heart
[9] = kidney homogenate, read-out: Inhibition rate of ex vivo anti-lipid peroxide action, Kidney

SMILES	LD50 at 7 days [1] [mg/kg]	Antioxidative action in vivo 50% inhibitory dose (ID50), Intraperitoneal administration [2] [mg/kg]	Antioxidative action in vivo 50% inhibitory dose (ID50), Oral administration [2] [mg/kg]	IC50 (15-lipoxygenase (15-LO)) [nM]	inhibition at 100 mg/kg [3, 7] [%]	inhibition at 100 mg/kg [3, 8] [%]	inhibition at 100 mg/kg [3, 9] [%]	Ratio of 66 kDa protein in UV-irradiated rat retina (right eye: irradiated/left eye: non-irradiated) [4]	Inhibitory effect on formation of lipid peroxides in retina ex vivo 30% inhibitory concentration (ID30, oral administration) [5] [mg/kg]	IC50 (5-lipoxygenase (5-LO)) [nM]	IC50 [6] [nM]
Cc1c(C)c2c(c(CN)c1N)CC(C)(C)O2 [Compound No. 1]	> 1000	1.8	6	3740	93	81	83	1.45	16	> 10000	
Cc1c(C)c2c(c(CN)c1N)CCC(C)(C)O2 [Compound No. 2, 2,2,7,8-tetramethyl-5-aminomethyl-6-aminochroman•-dihydrochloride]	> 1000	2.6	12		98	96	97		6.9		340
Cc1c(C)c2c(c(C)c1N)CC(C)(CN1CCC(c3ccccc3)CC1)O2 (centres unmarked) [Control Drug 2, reference compound]	< 300									> 10000	
Cc1c(C)c2c(c(N)c1N)CC(C)(C)O2 [Control drug 1, reference compound]		>30	>30		94	84	87				1400
